Patent publication US20260240878A1, “PTP1B/TC-PTP DUAL INHIBITORS AND PROTEIN DEGRADERS” (Purdue Research Foundation, priority 2023, published 2026)
Like-named read-outs stand apart in the source and are kept apart here. Each block holds one molecule with its values, some of them ahead of it. Where a SMILES comes first, the peptide text is derived from it. [ ]: non-standard residue; d: D form. The star is where a group is joined. F2Pmp = N[C@@H](Cc1ccc(C(F)(F)P(=O)(O)O)cc1)C(=O)O; Phenylacetyl(4-OH,3-OMe) = COc1cc(CC(=O)*)ccc1O; Benzoyl(3-Br,4-Me) = Cc1ccc(C(=O)*)cc1Br; X1 = Cc1ncsc1-c1ccc([C@H](C)N*)cc1; Hyp = O=C(O)[C@@H]1C[C@@H](O)CN1; Tle = CC(C)(C)[C@H](N)C(=O)O; PEG1 = NCCOCCC(=O)O

How the values were obtained:
[1] = biological target: T1, PTP1B (Homo sapiens, UniProt P18031); experiment: FP-based library screening (fluorescence polarization displacement); type: binding
T1 sequence (P18031 1-435): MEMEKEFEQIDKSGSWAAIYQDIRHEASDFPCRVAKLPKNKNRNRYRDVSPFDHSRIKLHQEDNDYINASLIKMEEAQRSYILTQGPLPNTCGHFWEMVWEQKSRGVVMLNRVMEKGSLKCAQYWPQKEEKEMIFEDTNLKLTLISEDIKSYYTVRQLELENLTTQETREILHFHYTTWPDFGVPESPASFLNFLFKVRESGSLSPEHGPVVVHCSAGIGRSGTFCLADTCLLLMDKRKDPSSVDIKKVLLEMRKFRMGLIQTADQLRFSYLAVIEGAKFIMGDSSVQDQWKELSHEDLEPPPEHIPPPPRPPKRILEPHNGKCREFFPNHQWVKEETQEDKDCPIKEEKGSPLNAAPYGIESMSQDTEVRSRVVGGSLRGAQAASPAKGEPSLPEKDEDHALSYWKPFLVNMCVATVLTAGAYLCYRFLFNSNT
Protocol: (§1) The library screening assay was carried out on a Tecan Genesis workstation with a 96-channel tip block with fixed tips. Before the screening, the library compounds were diluted from the DMSO stock solution into 3,3-dimethylglutarate buffer (50 mM 3,3-dimethylglutarate buffer, pH 7.0, containing 1 mM EDTA with an ionic strength of 0.15 M adjusted by addition of NaCl), resulting in a set of six daughter plates with an ~75 nM concentration of each compound in each well. In the first screen, PTP1B or TCPTP (2 μM in 50 mM 3,3-dimethylglutarate buffer, 50 μL, pH 7.0, containing 1 mM EDTA with an ionic strength of 0.15 M adjusted by addition of NaCl) was dispensed into each well of a 384-well plate, and then 2 μL of the fluorescein-tagged library compounds were transferred from four 96-well intermediate plates to the 384-well plate (final compound concentration ~3 nM). The fluorescence polarization values (A1) were recorded on an Envision 2021 Multilabel Microplate Reader (Perkin-Elmer). In the second screen, 50 μL of a mixture of 2 μM PTP1B or TCPTP and 500 μM Fmoc-F2Pmp-OH (as a competitive ligand) in 3,3-dimethylglutarate buffer (50 mM 3,3-dimethylglutarate buffer, pH 7.0, containing 1 mM EDTA with an ionic strength of 0.15 M adjusted by addition of NaCl) were dispensed into each well of another 384-well plate, followed by the addition of 2 μL of the fluorescein tagged library compounds (75 nM in 3,3-dimethylglutarate buffer, pH 7.0, containing 1 mM EDTA with an ionic strength of 0.15 M adjusted by addition of NaCl). The fluorescence polarization values (A2) were again measured. A displacement percentage was calculated for each library compound as (A1−A2)/(A1−A0)×100%, where A1 and A2 are the fluorescence anisotropy values of each sample as described, and A0 is the fluorescence anisotropy of free library compounds in 3,3-dimethylglutarate buffer. To simplify the calculation, A0 was set to 30. The binding affinity ranking of each compound was determined on the displacement percentage: the […] the displacement percentage, the higher the binding affinity.
(§2) The library was screened using the same protocol as the library 1, except that 0.5 μM PTP1BB/TC-PTP and 1.5 mM competitive ligand Fmoc-F2Pmp-OH were used.
(§3) The library was screened using the same protocol as the library 1, except that 0.5 μM PTP1B/TC-PTP and 5 μM ((4-((S)-2-((S)-2-acetamido-3-phenylpropanamido)-3-(((S)-1-amino-6-(3-bromo-4-methylbenzamido)-1-oxohexan-2-yl)amino)-3-oxopropyl)phenyl)difluoromethyl)phosphonic acid (as a competitor) were used.

[2] = biological target: T2, TC-PTP (Homo sapiens, UniProt P17706); experiment: as above; type: binding
T2 sequence (P17706 1-415): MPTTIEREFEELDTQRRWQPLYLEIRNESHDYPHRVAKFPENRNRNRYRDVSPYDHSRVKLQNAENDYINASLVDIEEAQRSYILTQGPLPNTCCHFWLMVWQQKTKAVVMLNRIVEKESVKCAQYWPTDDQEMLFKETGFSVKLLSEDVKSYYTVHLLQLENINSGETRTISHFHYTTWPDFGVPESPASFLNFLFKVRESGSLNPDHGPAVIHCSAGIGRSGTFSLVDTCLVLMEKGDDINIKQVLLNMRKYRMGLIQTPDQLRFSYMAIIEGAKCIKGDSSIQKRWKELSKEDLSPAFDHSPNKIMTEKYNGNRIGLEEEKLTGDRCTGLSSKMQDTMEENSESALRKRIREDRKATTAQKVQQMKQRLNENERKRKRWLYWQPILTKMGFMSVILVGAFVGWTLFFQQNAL
Protocol: as §1, §2, §3

[3] = biological target: T1, PTP1B; experiment: Degradation assay in HEK293 cells (immunoblotting); type: cell-based; set-up: endogenous in cells; host or cells: HEK293; details: 0.2 μM degrader, 16 hours
Protocol: (§4) HEK293. MIAPaCa-2, HepG2, U2OS, H116, MEF, B16F10, and MC38 cells, were grown in DMEM, while Jurkat and H358 cells were grown in RPMI 1640 supplemented with 10% fetal bovine serum, penicillin (50 units/mL), and streptomycin (50 μg/mL) in a 37° C. incubator containing 5% CO2. 20 ng/ml human (Biolegend #713906) or mouse (Biolegend #714006) Interferon-γ were used for JAK/STAT pathway stimulation.
(§5) Tissues or cultured cells were lysed with ice-cold lysis buffer (50 mM Tris (pH 8.0, 150 mM NaCl, 10% Glycerol, 1% Triton-X-100) supplied with phosphatase inhibitor (Bimake) and protease inhibitor mixture (Roche Applied Science). Equal amounts of protein were resolved by SDS-PAGE, transferred to nitrocellulose membrane, and subjected to immunoblotting. Antibodies used in this study include anti-following proteins: pSTAT1^Tyr701 (Cell Signaling Technology #9167, 1:3000), GAPDH (Cell Signaling Technology #97166, 1:5000), pJAK1^Tyr1034/1035 (Cell Signaling Technology #74129, 1:1000), pJAK2^Tyr1007/1008 (Cell Signaling Technology #3776, 1:1000), TC-PTP (Abcam #ab180764, 1:3000). PTP1B (Abcam #ab244207, 1:1500).
(§6) Degradation assay was conducted in HEK293 cells with 1 μM degrader and 24 hours incubation.
(§7) The degradation assay was conducted in HEK293 cells with 0.2 μM degrader and 16 hours incubation.

[4] = biological target: T2, TC-PTP; experiment: Degradation assay in HEK293 cells (immunoblotting); type: cell-based; set-up: endogenous in cells; host or cells: HEK293; details: 0.2 μM degrader, 16 hours, read-out: % Protein Degradation TC-PTP
Protocol: as §4, §5, §6, §7

[5] = biological target: T1, PTP1B; experiment: PTP activity assay with pNPP substrate (IC50, Ki, mode of inhibition); type: biochemical
Protocol: (§8) PTP activity was assayed using p-nitrophenyl phosphate (pNPP) as a substrate in DMG buffer (50 mM DMG. pH 7.0, 1 mM EDTA, 150 mM NaCl, 2 mM DTT, 0.1 mg/mL BSA) at 25° C. The assays were performed in 96-well plates. Normally, to determine the IC50 values, the reaction was initiated by the addition of enzyme (for PTP1B and TCPTP, the final concentration was 0.4 nM, for other PTPs, the final concentration was 10 nM) to a reaction mixture (0.2 mL) containing 2 mM (Km for the substrate) pNPP with various concentrations of inhibitors (see FIG. 1). The reaction rate was measured using a SpectraMax Plus 384 Microplate Spectrophotometer (Molecular Devices). Data were fitted using SigmaPlot Enzyme Kinetics Module (Systat Software, Inc.). To determine the mode of inhibition, the reactions were initiated by the addition of enzyme (final concentration for TC-PTP and PTP1B was 0.4 nM) to the reaction mixtures (0.2 mL) containing various concentrations of pNPP with different concentrations of the inhibitor. Data were fitted using SigmaPlot Enzyme Kinetics Module (Systat Software. Inc.).

[6] = biological target: T2, TC-PTP; experiment: as above; type: biochemical
Protocol: as §8

[7] = library 3, 0.5 μM enzyme, 5 μM Example 6 compound as competitor
[8] = library 2, 0.5 μM enzyme, 1.5 mM Fmoc-F2Pmp-OH
[9] = library 1, 2 μM PTP1B, 500 μM Fmoc-F2Pmp-OH competitive ligand, smaller = higher affinity
[10] = library 1, 2 μM TCPTP, 500 μM Fmoc-F2Pmp-OH competitive ligand, smaller = higher affinity

Molecule: 2-(3-fluoro-4- hydroxyphenyl)acetic acid
Displacement %, PTP1B [1, 7]: 72%
Displacement %, TC-PTP [2, 7]: 75%

Molecule: 2-(4-chloro-2- methylphenoxy)acetic acid
Displacement %, PTP1B [1, 8]: 57%
Displacement %, TC-PTP [2, 8]: 55%

Molecule: 3-bromo-4- methylbenzoic acid
Displacement %, PTP1B [1, 9]: 34%
Displacement %, TC-PTP [2, 10]: 39%

Molecule: COc1cc(CC(=O)N[C@@H](Cc2ccccc2)C(=O)N[C@@H](Cc2ccc(C(F)(F)P(=O)(O)O)cc2)C(=O)N[C@@H](CCCCNC(=O)c2ccc(C)c(Br)c2)C(=O)NCc2ccccc2CCC(=O)N[C@H](C(=O)N2C[C@H](O)C[C@H]2C(=O)NCc2ccc(-c3scnc3C)cc2)C(C)(C)C)ccc1O (stereo in doubt) [Compound 40, ((4-((S)-3-(((S)-6-(3-bromo-4-methylbenzamido)-1-((2-(3-(((S)-1-((2S,4R)-4-hydroxy-2-((4-(4-methylthiazol-5-yl)benzyl)carbamoyl)pyrrolidin-1-yl)-3,3-dimenthyl-1-oxobutan-2-yl)amino)-3-oxopropyl)benzyl)amino)-1-oxohexan-2-yl)amino)-2-((S)-2-(2-(4-hydroxy-3-methoxyphenyl)acetamido)-3-phenylpropanamido)-3-oxopropyl)phenyl)difluoromethyl)phosphonic Acid]
% Protein Degradation PTP1B [3]: 16%
percent TC-PTP degradation at 0.2 µM [4]: 0%
IC50 [5]: 3.8 ± 0.4 nM
IC50 [6]: 2.9 ± 0.5 nM

Displacement %, PTP1B [1, 7]: 81%
Displacement %, TC-PTP [2, 7]: 79%
Molecule: CN(C)c1ccc(CC(=O)O)cc1 [2-(4-(dimethylamino)phenyl) acetic acid]

Displacement %, PTP1B [1, 7]: 77%
Displacement %, TC-PTP [2, 7]: 77%
Molecule: O=C(O)Cc1ccc(Br)cc1 [2-(4-bromophenyl)acetic acid]

Molecule: COc1cc(CC(=O)O)ccc1O [2-(4-hydroxy-3-methoxyphenyl)acetic acid]
Displacement %, PTP1B [1, 7]: 51%
Displacement %, TC-PTP [2, 7]: 54%

Molecule: O=C(O)Cc1ccc(O)cc1 [2-(4-hydroxyphenyl)acetic acid]
Displacement %, PTP1B [1, 7]: 66%
Displacement %, TC-PTP [2, 7]: 62%

Displacement %, PTP1B [1, 8]: 47%
Displacement %, TC-PTP [2, 8]: 53%
Molecule: Cc1ccc(CCC(=O)O)cc1 [3-(p-tolyl)propanoic acid]

Displacement %, PTP1B [1, 9]: 57%
Displacement %, TC-PTP [2, 10]: 54%
Molecule: COc1ccc(C(=O)O)cc1F [3-fluoro-4-methoxybenzoic acid]

Displacement %, PTP1B [1, 9]: 41%
Displacement %, TC-PTP [2, 10]: 40%
Molecule: COc1cc(C(=O)O)ccc1[N+](=O)[O-] [3-methoxy-4-nitrobenzoic acid]

Displacement %, PTP1B [1, 9]: 45%
Displacement %, TC-PTP [2, 10]: 51%
Molecule: O=C(O)c1ccsc1 [3-thiophenecarboxylic acid]

Displacement %, PTP1B [1, 9]: 44%
Displacement %, TC-PTP [2, 10]: 46%
Molecule: O=C(O)c1ccc(F)cc1 [4-fluorobenzoic acid]

Displacement %, PTP1B [1, 8]: 44%
Displacement %, TC-PTP [2, 8]: 41%
Molecule: CCOC(=O)N[C@@H](Cc1ccccc1)C(=O)O [(ethoxycarbonyl)-L- phenylalanine]

Molecule: COc1cc(CC(=O)N[C@@H](Cc2ccccc2)C(=O)N[C@@H](Cc2ccc(C(F)(F)P(=O)(O)O)cc2)C(=O)N[C@@H](CCCCNC(=O)c2ccc(C)c(Br)c2)C(=O)NCCOCCC(=O)N[C@H](C(=O)N2C[C@H](O)C[C@H]2C(=O)N[C@@H](C)c2ccc(-c3scnc3C)cc2)C(C)(C)C)ccc1O [Compound 27, ((4-((2S,5S,15S)-5-(4-(3-bromo-4-methylbenzamido)butyl)-15-((2S,4R)-4-hydroxy-2-(((S)-1-(4-(4-methylthiazol-5-yl)phenyl)ethyl)carbamoyl)pyrrolidine-1-carbonyl)-2-((S)-2-(2-(4-hydroxy-3-methoxyphenyl)acetamido)-3-phenylpropanamido)-16,16-dimethyl-3,6,13-trioxo-10-oxa-4,7,14-triazaheptadecyl)phenyl)difluoromethyl)phosphonic Acid] ({Phenylacetyl(4-OH,3-OMe)}-F[F2Pmp]K(Benzoyl(3-Br,4-Me))[PEG1][Tle][Hyp]-X1)
% Protein Degradation PTP1B [3]: 75%
percent TC-PTP degradation at 0.2 µM [4]: 63%
IC50 ([5]; pNPP 2 mM, pH 7.0, 25° C., read-out: IC50, nM PTP1B): 15.5 ± 2.1 nM
IC50 ([6]; pNPP 2 mM, pH 7.0, 25° C., read-out: IC50, nM TC-PTP): 6.7 ± 2 nM

Displacement %, PTP1B [1, 8]: 37%
Displacement %, TC-PTP [2, 8]: 41%
Molecule: CC(=O)N[C@@H](Cc1ccccc1)C(=O)O [acetyl-L-phenylalanine]

Molecule: (S)-2-acetamido-3-(4- fluorophenyl)propanoic acid
Displacement %, PTP1B [1, 8]: 45%
Displacement %, TC-PTP [2, 8]: 45%
